Columns and labels:
MerCreMer/ZEG (M/Z) mice = test: Cardiomyocyte replenishment after myocardial infarction, GFP+ / β-Gal+ cardiomyocyte counting; assay type: in vivo, mouse; settings: for stem cell-mediated cardiomyocyte reconstitution: aged mice (>18 months), 14 days post-MI
Method: All experiments involving animals were conducted in accordance with the Guide for the Use and Care of Laboratory Animals, and all animal protocols have been approved by National Cheng Kung University. Sca-1^− GFP, B6.Cg-Tg(Ly6a-GFP)G5Dzk/J and EP2^−/−, B6.129-Ptger2^tm/Brey/J mice were obtained from Jackson Laboratory. The double transgenic MerCreMer/ZEG (M/Z) mice were generated by crossbreeding MerCreMer and Z/EG mice (Jackson Laboratory), which have C57BL/6SV129 and C57BL/6J (N7) background strains, respectively. The MerCreMer mice contain a tamoxifen-inducible Cre recombinase fusion protein driven by the cardiomyocyte-specific α-MHC promoter. In Z/EG mice, GFP replace constitutive β-Gal expression after the removal of a LoxP-flanked stop sequence by Cre.
M/Z mice were subjected to experimental myocardial infarction (MI) one month after the last tamoxifen injection. MI was generated by ligating the left anterior descending coronary artery at 2-3 mm distal to the left atrial appendage. For cell transplantation experiments, intramyocardial injections were performed immediately after coronary ligation. A total of 6×10^5 cardiac Sca-1^+ cells were injected per mouse in two divided injections (5 μl/injection). For BrdU labeling, the mice were subcutaneously implanted with osmotic minipump (Alzet) at the time of surgery and 40 μg/μl of BrdU (Sigma) was administrated. For immunohistological studies, mice were sacrificed and the hearts were harvested at different time points following experimental MI surgery. Cardiac performances were assessed by echocardiography at 28 and 56 days after operation using Vevo 770 (Visualsonics, Toronto, Canada).
(§1) To induce Cre recombination to achieve GFP labeling of cardiomyocytes, tamoxifen (Sigma) was dissolved in sunflower oil (Sigma) at a concentration of 5 mg/ml. The tamoxifen solution was injected intraperitoneally into M/Z mice daily at a dosage of 40 μg per 1 g body weight for 14 days, and the same dosage was injected twice daily for short-term labeling using methods known in the art (Laugwitz, K.-L. et al. Nature 433, 647-653 (2005)). All experimental conditions were optimized prior to the PGE2, indomethacin and TGF-β Type I Receptor Kinase Inhibitor II (ALK5 Inhibitor II, ALK5i, Merck) treatments. The mice treated with PGE2 or PGI2 (Vegiopoulos, A. et al. Science 328, 1158-1161 (2010)) (both from Sigma) were injected intraperitoneally with 3.33 ng of drug per 1 g of body weight dissolved in absolute ethanol twice daily. For the indomethacin treatment, mice were fed with water containing indomethacin (Sigma, 15 μg/ml) for different periods of time. The indomethacin-containing water was changed every 3 days. The mice subjected to the celecoxib (Lyons, T. R. et al. Nat. Med. 17, 1109-1115 (2011)) (Sigma) treatment were injected intraperitoneally with 5 μg of drug per 1 g of body weight daily. For ALK5i treatment, aged mice were injected intraperitoneally once per day with 1 μg of drug per 1 g of body weight one day before surgery and continuously until day 10 post-MI. Celecoxib and ALK5i were dissolved in ethanol and DMSO, respectively.
All of the cellular quantifications were performed double-blindly to minimize personal bias. […] For the cardiomyocyte cell counts, 3 sections from each heart, and 2 infarction border zones and 1 remote area from each section were analyzed at a magnification of 200× by light microscopy. Cells with visible sarcomere structures were analyzed, and the average number of cells counted was 171.8±5.8 per photo image. For the small cardiac cell counts, more than five sections from each heart were analyzed at a magnification of 400× using fluorescence microscopy. The average number of cells counted was 17.01±0.99 per photo image, and more than one hundred and fifty cells were analyzed from each heart. As quantification result is the averaged values calculated from the pictures taken from six border zone sections per heart, personal variation has been minimized. […]

Sca-1+ cells = test: Flow cytometry of Sca-1+/GFP+ cardiac small cells on day 3 post-MI; assay type: in vivo, mouse; settings: tamoxifen 80 μg/g per day for 3 days, P<0.001
Method: as §1, with “Celecoxib and ALK5i were dissolved in ethanol and DMSO, respectively.” left out

[1] = tested on: cardiomyocyte-depleted small cells; test: Culture of cardiomyocyte-depleted small cells, cTnT immunocytochemistry; assay type: cell-based, mouse; settings: PGE2 10 μm for three days
Method: Cardiomyocyte-depleted cardiac small cells were prepared as previously described with some modifications (Oh, H. et al. Proc. Natl. Acad. Sci. USA 100, 12313-12318 (2003); and Pfister, O. et al. Circ. Res. 97, 52-61 (2005)). Specifically, instead of using a 70 μm and then a 45 μm strainer to isolate the cardiomyocyte-depleted cardiac small cells, the cells were filtered through a 45 μm strainer directly after enzyme digestion. The minced heart tissue was digested with 0.1% collagenase B (Roche Molecular Biochemicals), 2.4 U/ml dispase II (Roche Molecular Biochemicals) and 2.5 mmol/L CaCl2 at 37° C. for 30 minutes and then filtered through a 45-μm filter. For isolation of cardiac Sca-1^+ cells, the cardiac small cells were incubated with the Phycoerythrin (PE)-conjugated Sca-1^+ antibodies (BD Bioscience) at 4° C. for 30 minutes. The PE-labeled Sca-1^+ cells were then sorted by the magnetic particles against PE (BD Biosciences). Incubation of cardiomyocyte-depleted small cells with anti-Sca-1-PE antibody and magnetic cell sorting were omitted for isolation of Sca-1^+ cells from the Sca-1-GFP transgenic mice. After isolation, the cells were fixed in 2% paraformaldehyde for 20 minutes and followed by 1 hour blocking in PBS with 1% BSA. […]

## CCCCC[C@H](O)/C=C/C1C(O)CC(=O)C1C/C=C\CCCC(=O)O (stereo partly drawn) [PGE2, (5Z,11α,13E,15S)-7-[3-hydroxy-2-(3-hydroxyoct-1-enyl)-5-oxo-cyclopentyl]hept-5-enoic acid]
MerCreMer/ZEG (M/Z) mice; border zone, P<0.01 versus sham or MI
  stem cell-mediated cardiomyocyte reconstitution: successfully recover
MerCreMer/ZEG (M/Z) mice; remote area
  stem cell-mediated cardiomyocyte reconstitution: not in the remote area
MerCreMer/ZEG (M/Z) mice; border zone, PGE2 plus indomethacin, P<0.01
  rescue of cardiomyocyte replenishment compared to indomethacin treatment alone: about 10%
MerCreMer/ZEG (M/Z) mice; border zone, young mice, 3.33 ng per 1 g i.p. twice daily for 14 days, P<0.01
  increase of cardiomyocyte replenishment compared to the vehicle control: about 9%
Sca-1+ cells
  number of Sca-1+/GFP+ cells: expanding
[1]
  mature sarcomeric structure, as determined by the expression of cTnT: seen

— patent publication US20130331389A1, “Methods and Compositions for Cardiomyocyte Replenishment by Endogenous and Progenitor Stem Cells” (NATIONAL CHENG KUNG UNIVERSITY, priority 2012, published 2013)
